Measurements taken from patent US10722442B2, “Skin brightening composition comprising novel ginsenoside” (AMOREPACIFIC CORPORATION, priority 2018, dated 2020).

Legend:
[1] = biological target: Mushroom-derived tyrosinase; experiment: Inhibitory effect of tyrosinase activity; format: biochemical; conditions: L-tyrosine substrate, 20 minutes at 37° C., absorbance at 490 nm
Protocol: In order to compare the skin brightening effects of ginsenosides isolated from the ginseng seed extract, the inhibitory effect of the tyrosinase activity was evaluated as follows. Mushroom-derived tyrosinase and tyrosine were obtained from Sigma Chemical. […] Tyrosinase activity was assessed by measuring the absorbance at 490 nm using a microplate reader (Bio-Rad 3550, Richmond, Calif., U.S.A.) after an enzyme reaction for 20 minutes at 37° C.

SH-SY5Y cells = experiment: Cytotoxicity, Cell Counting Kit (CCK)-8; format: cell-based; conditions: SH-SY5Y cells, 0.1, 1, 5, 10, 20, and 50 μM; up to 50 μM
Protocol: The cell growth in the presence of novel ginsenoside GS #10, which is an example of the present disclosure, was evaluated using Cell Counting Kit (CCK)-8, in order to exclude the possibility that ginsenosides may affect skin brightening efficacy through cytotoxic activity.
Specifically, the viability of SH-SY5Y cells was assessed using CCK-8 assay according to manufacturer's instructions (Dojindo, Md., USA). CCK-8, a cell viability detection reagent, was added to the cultured SH-SY5Y cells and incubated for 2 hours in a wet atmosphere. Then, absorbance was measured at 450 nm, and the cell viability was marked as a percentage (%) of the absolute optical density of each sample relative to the untreated sample. At this time, the concentration of the novel ginsenoside GS #10, which is an example of the present disclosure, contained in the medium in which the cells were cultured was 0.1, 1, 5, 10, 20, and 50 μM, respectively.

Mel-Ab cell line = experiment: Melanin production inhibition (Dooley's method); format: cell-based, C57BL/6; conditions: Mel-Ab cells, after 5 days, absorbance at 400 nm
healthy adult subjects = experiment: Human repeated insult patch tests (HRIPT), skin accumulated irritation; format: in vivo; design: key to reactivity (skin response, ICDRG criteria): −: Negative (no response); ±: Suspicious or slight erythema, or the like; +: Weak reactions (without vesicles), erythema, papules; ++: Severe reactions (with vesicles), erythema, papules, vesicles; +++: Strong reaction, bulla reaction; conditions: for Average reactivity: safe when less than 3
Protocol: Human repeated insult patch tests (HRIPT) were performed to confirm whether the novel ginsenoside GS #10, which is an example of the present disclosure, has a skin accumulated irritation and to calculate a concentration range that can be used on the skin.
Specifically, 15 healthy adult subjects were randomly selected, and the test composition containing 0.5 wt %, 1 wt %, and 3 wt % of the compound (the skin composition comprising an emulsifier, a stabilizer, purified water, etc. in addition to the compound) was added dropwise by 20 μl per chamber (IQ chamber, Epitest Ltd, Finland). After 24 hours from patching the upper right part of the back of a subject, it was replaced with the new patch. In this way, the skin reactions were examined before and after each patch while performing nine patches three times a week for a total of three weeks. The skin reactions were confirmed up to 48 hours after removing the final patch, and the average reactivity was obtained.
The skin response was determined according to the criteria of the International Contact Dermatitis Research Group (ICDRG). […] This means that the novel ginsenoside GS #10, which is an example of the present disclosure, has no skin accumulated irritation and can be used safely on the skin.

CC1(C)C(=O)CC[C@@]2(C)C1[C@@H](O[C@H]1OC(CO)[C@H](O)C(O)C1O[C@H]1OC(CO)[C@H](O)C(O)C1O)C[C@]1(C)C2C[C@@H](O)C2C([C@]3(C)CC[C@H](C(C)(C)O)O3)CC[C@]21C (stereo partly drawn) [GS#10, (20S,24R)-6-O-β-D-glucopyranosyl(1→2)-β-D-glucopyranoside-dammar-3-one-20,24-epoxy-6a,12b,25-triol]
IC50 (ppm), inhibitory effect of tyrosinase activity [1]: 15 ppm | cytotoxicity (cell viability) (SH-SY5Y cells): did not exhibit cytotoxicity | IC50 (ppm), concentration required to reduce melanin production in melanocytes by half (Mel-Ab cell line): 22 ppm | Number of subjects with ±, +, or ++ reactivity (healthy adult subjects; 0.5 wt %, Eight times, 1st line (±)): 0 person | Number of subjects with ±, +, or ++ reactivity (healthy adult subjects; 0.5 wt %, Eight times, 2nd line (+)): 0 person | Number of subjects with ±, +, or ++ reactivity (healthy adult subjects; 0.5 wt %, Eight times, 3rd line (++)): 0 person | Number of subjects with ±, +, or ++ reactivity (healthy adult subjects; 0.5 wt %, Five times, 1st line (±)): 0 person | Number of subjects with ±, +, or ++ reactivity (healthy adult subjects; 0.5 wt %, Five times, 2nd line (+)): 0 person | Number of subjects with ±, +, or ++ reactivity (healthy adult subjects; 0.5 wt %, Five times, 3rd line (++)): 0 person | Number of subjects with ±, +, or ++ reactivity (healthy adult subjects; 0.5 wt %, Four times, 1st line (±)): 0 person | Number of subjects with ±, +, or ++ reactivity (healthy adult subjects; 0.5 wt %, Four times, 2nd line (+)): 0 person | Number of subjects with ±, +, or ++ reactivity (healthy adult subjects; 0.5 wt %, Four times, 3rd line (++)): 0 person | Number of subjects with ±, +, or ++ reactivity (healthy adult subjects; 0.5 wt %, Nine times, 1st line (±)): 0 person | Number of subjects with ±, +, or ++ reactivity (healthy adult subjects; 0.5 wt %, Nine times, 2nd line (+)): 0 person | Number of subjects with ±, +, or ++ reactivity (healthy adult subjects; 0.5 wt %, Nine times, 3rd line (++)): 0 person | Number of subjects with ±, +, or ++ reactivity (healthy adult subjects; 0.5 wt %, Once, 1st line (±)): 0 person | Number of subjects with ±, +, or ++ reactivity (healthy adult subjects; 0.5 wt %, Once, 2nd line (+)): 0 person | Number of subjects with ±, +, or ++ reactivity (healthy adult subjects; 0.5 wt %, Once, 3rd line (++)): 0 person | Number of subjects with ±, +, or ++ reactivity (healthy adult subjects; 0.5 wt %, Seven times, 1st line (±)): 0 person | Number of subjects with ±, +, or ++ reactivity (healthy adult subjects; 0.5 wt %, Seven times, 2nd line (+)): 0 person | Number of subjects with ±, +, or ++ reactivity (healthy adult subjects; 0.5 wt %, Seven times, 3rd line (++)): 0 person | Number of subjects with ±, +, or ++ reactivity (healthy adult subjects; 0.5 wt %, Six times, 1st line (±)): 0 person | Number of subjects with ±, +, or ++ reactivity (healthy adult subjects; 0.5 wt %, Six times, 2nd line (+)): 0 person | Number of subjects with ±, +, or ++ reactivity (healthy adult subjects; 0.5 wt %, Six times, 3rd line (++)): 0 person | Number of subjects with ±, +, or ++ reactivity (healthy adult subjects; 0.5 wt %, Three times, 1st line (±)): 0 person | Number of subjects with ±, +, or ++ reactivity (healthy adult subjects; 0.5 wt %, Three times, 2nd line (+)): 0 person | Number of subjects with ±, +, or ++ reactivity (healthy adult subjects; 0.5 wt %, Three times, 3rd line (++)): 0 person | Average reactivity (healthy adult subjects; 0.5 wt %): 0 | Number of subjects with ±, +, or ++ reactivity (healthy adult subjects; 0.5 wt %, twice, 1st line (±)): 0 person | Number of subjects with ±, +, or ++ reactivity (healthy adult subjects; 0.5 wt %, twice, 2nd line (+)): 0 person | Number of subjects with ±, +, or ++ reactivity (healthy adult subjects; 0.5 wt %, twice, 3rd line (++)): 0 person | Number of subjects with ±, +, or ++ reactivity (healthy adult subjects; 1 wt %, Eight times, 1st line (±)): 0 person | Number of subjects with ±, +, or ++ reactivity (healthy adult subjects; 1 wt %, Eight times, 2nd line (+)): 0 person | Number of subjects with ±, +, or ++ reactivity (healthy adult subjects; 1 wt %, Eight times, 3rd line (++)): 0 person | Number of subjects with ±, +, or ++ reactivity (healthy adult subjects; 1 wt %, Five times, 1st line (±)): 0 person | Number of subjects with ±, +, or ++ reactivity (healthy adult subjects; 1 wt %, Five times, 2nd line (+)): 0 person | Number of subjects with ±, +, or ++ reactivity (healthy adult subjects; 1 wt %, Five times, 3rd line (++)): 0 person | Number of subjects with ±, +, or ++ reactivity (healthy adult subjects; 1 wt %, Four times, 1st line (±)): 0 person | Number of subjects with ±, +, or ++ reactivity (healthy adult subjects; 1 wt %, Four times, 2nd line (+)): 0 person | Number of subjects with ±, +, or ++ reactivity (healthy adult subjects; 1 wt %, Four times, 3rd line (++)): 0 person | Number of subjects with ±, +, or ++ reactivity (healthy adult subjects; 1 wt %, Nine times, 1st line (±)): 0 person | Number of subjects with ±, +, or ++ reactivity (healthy adult subjects; 1 wt %, Nine times, 2nd line (+)): 0 person | Number of subjects with ±, +, or ++ reactivity (healthy adult subjects; 1 wt %, Nine times, 3rd line (++)): 0 person | Number of subjects with ±, +, or ++ reactivity (healthy adult subjects; 1 wt %, Once, 1st line (±)): 0 person | Number of subjects with ±, +, or ++ reactivity (healthy adult subjects; 1 wt %, Once, 2nd line (+)): 0 person | Number of subjects with ±, +, or ++ reactivity (healthy adult subjects; 1 wt %, Once, 3rd line (++)): 0 person | Number of subjects with ±, +, or ++ reactivity (healthy adult subjects; 1 wt %, Seven times, 1st line (±)): 0 person | Number of subjects with ±, +, or ++ reactivity (healthy adult subjects; 1 wt %, Seven times, 2nd line (+)): 0 person | Number of subjects with ±, +, or ++ reactivity (healthy adult subjects; 1 wt %, Seven times, 3rd line (++)): 0 person | Number of subjects with ±, +, or ++ reactivity (healthy adult subjects; 1 wt %, Six times, 1st line (±)): 0 person | Number of subjects with ±, +, or ++ reactivity (healthy adult subjects; 1 wt %, Six times, 2nd line (+)): 0 person | Number of subjects with ±, +, or ++ reactivity (healthy adult subjects; 1 wt %, Six times, 3rd line (++)): 0 person | Number of subjects with ±, +, or ++ reactivity (healthy adult subjects; 1 wt %, Three times, 1st line (±)): 0 person | Number of subjects with ±, +, or ++ reactivity (healthy adult subjects; 1 wt %, Three times, 2nd line (+)): 0 person | Number of subjects with ±, +, or ++ reactivity (healthy adult subjects; 1 wt %, Three times, 3rd line (++)): 0 person | Average reactivity (healthy adult subjects; 1 wt %): 0 | Number of subjects with ±, +, or ++ reactivity (healthy adult subjects; 1 wt %, twice, 1st line (±)): 0 person | Number of subjects with ±, +, or ++ reactivity (healthy adult subjects; 1 wt %, twice, 2nd line (+)): 0 person | Number of subjects with ±, +, or ++ reactivity (healthy adult subjects; 1 wt %, twice, 3rd line (++)): 0 person | Number of subjects with ±, +, or ++ reactivity (healthy adult subjects; 3 wt %, Eight times, 1st line (±)): 0 person | Number of subjects with ±, +, or ++ reactivity (healthy adult subjects; 3 wt %, Eight times, 2nd line (+)): 0 person | Number of subjects with ±, +, or ++ reactivity (healthy adult subjects; 3 wt %, Eight times, 3rd line (++)): 0 person | Number of subjects with ±, +, or ++ reactivity (healthy adult subjects; 3 wt %, Five times, 1st line (±)): 0 person | Number of subjects with ±, +, or ++ reactivity (healthy adult subjects; 3 wt %, Five times, 2nd line (+)): 0 person | Number of subjects with ±, +, or ++ reactivity (healthy adult subjects; 3 wt %, Five times, 3rd line (++)): 0 person | Number of subjects with ±, +, or ++ reactivity (healthy adult subjects; 3 wt %, Four times, 1st line (±)): 0 person | Number of subjects with ±, +, or ++ reactivity (healthy adult subjects; 3 wt %, Four times, 2nd line (+)): 0 person | Number of subjects with ±, +, or ++ reactivity (healthy adult subjects; 3 wt %, Four times, 3rd line (++)): 0 person | Number of subjects with ±, +, or ++ reactivity (healthy adult subjects; 3 wt %, Nine times, 1st line (±)): 0 person | Number of subjects with ±, +, or ++ reactivity (healthy adult subjects; 3 wt %, Nine times, 2nd line (+)): 0 person | Number of subjects with ±, +, or ++ reactivity (healthy adult subjects; 3 wt %, Nine times, 3rd line (++)): 0 person | Number of subjects with ±, +, or ++ reactivity (healthy adult subjects; 3 wt %, Once, 1st line (±)): 0 person | Number of subjects with ±, +, or ++ reactivity (healthy adult subjects; 3 wt %, Once, 2nd line (+)): 0 person | Number of subjects with ±, +, or ++ reactivity (healthy adult subjects; 3 wt %, Once, 3rd line (++)): 0 person | Number of subjects with ±, +, or ++ reactivity (healthy adult subjects; 3 wt %, Seven times, 1st line (±)): 0 person | Number of subjects with ±, +, or ++ reactivity (healthy adult subjects; 3 wt %, Seven times, 2nd line (+)): 0 person | Number of subjects with ±, +, or ++ reactivity (healthy adult subjects; 3 wt %, Seven times, 3rd line (++)): 0 person | Number of subjects with ±, +, or ++ reactivity (healthy adult subjects; 3 wt %, Six times, 1st line (±)): 0 person | Number of subjects with ±, +, or ++ reactivity (healthy adult subjects; 3 wt %, Six times, 2nd line (+)): 0 person | Number of subjects with ±, +, or ++ reactivity (healthy adult subjects; 3 wt %, Six times, 3rd line (++)): 0 person | Number of subjects with ±, +, or ++ reactivity (healthy adult subjects; 3 wt %, Three times, 1st line (±)): 0 person | Number of subjects with ±, +, or ++ reactivity (healthy adult subjects; 3 wt %, Three times, 2nd line (+)): 0 person | Number of subjects with ±, +, or ++ reactivity (healthy adult subjects; 3 wt %, Three times, 3rd line (++)): 0 person | Average reactivity (healthy adult subjects; 3 wt %): 0 | Number of subjects with ±, +, or ++ reactivity (healthy adult subjects; 3 wt %, twice, 1st line (±)): 0 person | Number of subjects with ±, +, or ++ reactivity (healthy adult subjects; 3 wt %, twice, 2nd line (+)): 0 person | Number of subjects with ±, +, or ++ reactivity (healthy adult subjects; 3 wt %, twice, 3rd line (++)): 0 person | reactivity (skin response, ICDRG criteria) (healthy adult subjects; all content range (0.5 wt %, 1 wt %, 3 wt %), nine patches in three weeks): −
